Here are results for three compounds from patent US12617792B2, “Purine derivative, intermediate and application thereof in preparing anticancer medicine” (SUZHOU RAYMON PHARMACEUTICALS COMPANY, LTD., priority 2019, dated 2026).

Each structure is given as a SMILES string. pIC50: −log10 of the molar value.

This assay deals with T1, PI3K-alpha enzyme (Homo sapiens, UniProt P42336).
T1 construct: purchased Millipore 14-602
T1 sequence (P42336 whole entry): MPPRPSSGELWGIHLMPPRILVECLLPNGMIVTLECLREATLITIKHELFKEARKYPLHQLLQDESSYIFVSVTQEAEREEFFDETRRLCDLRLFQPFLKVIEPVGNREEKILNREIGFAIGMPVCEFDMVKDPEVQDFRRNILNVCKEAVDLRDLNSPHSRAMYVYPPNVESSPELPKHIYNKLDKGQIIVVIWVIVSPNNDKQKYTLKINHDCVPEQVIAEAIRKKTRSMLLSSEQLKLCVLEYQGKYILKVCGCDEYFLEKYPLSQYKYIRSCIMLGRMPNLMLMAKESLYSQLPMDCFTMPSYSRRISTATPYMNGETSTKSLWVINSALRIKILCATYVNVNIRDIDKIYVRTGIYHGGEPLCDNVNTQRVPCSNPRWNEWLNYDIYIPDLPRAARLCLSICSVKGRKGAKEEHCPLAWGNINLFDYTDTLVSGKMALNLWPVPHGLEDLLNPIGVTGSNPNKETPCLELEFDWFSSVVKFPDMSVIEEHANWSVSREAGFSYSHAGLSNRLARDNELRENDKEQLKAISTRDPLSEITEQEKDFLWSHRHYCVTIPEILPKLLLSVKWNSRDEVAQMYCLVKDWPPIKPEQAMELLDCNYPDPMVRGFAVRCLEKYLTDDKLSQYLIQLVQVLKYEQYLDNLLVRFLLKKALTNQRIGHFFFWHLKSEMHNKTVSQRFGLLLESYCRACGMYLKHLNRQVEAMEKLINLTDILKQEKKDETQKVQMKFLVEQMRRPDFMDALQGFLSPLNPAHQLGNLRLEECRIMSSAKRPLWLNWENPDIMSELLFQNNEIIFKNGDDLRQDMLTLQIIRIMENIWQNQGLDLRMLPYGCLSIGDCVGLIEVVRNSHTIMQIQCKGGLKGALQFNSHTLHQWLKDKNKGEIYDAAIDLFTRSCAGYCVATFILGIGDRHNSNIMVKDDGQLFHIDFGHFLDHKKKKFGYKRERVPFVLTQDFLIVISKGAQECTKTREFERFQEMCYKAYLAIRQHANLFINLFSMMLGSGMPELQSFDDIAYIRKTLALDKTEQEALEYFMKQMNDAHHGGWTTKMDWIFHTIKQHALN
T1 sequence (P27986 whole entry partner): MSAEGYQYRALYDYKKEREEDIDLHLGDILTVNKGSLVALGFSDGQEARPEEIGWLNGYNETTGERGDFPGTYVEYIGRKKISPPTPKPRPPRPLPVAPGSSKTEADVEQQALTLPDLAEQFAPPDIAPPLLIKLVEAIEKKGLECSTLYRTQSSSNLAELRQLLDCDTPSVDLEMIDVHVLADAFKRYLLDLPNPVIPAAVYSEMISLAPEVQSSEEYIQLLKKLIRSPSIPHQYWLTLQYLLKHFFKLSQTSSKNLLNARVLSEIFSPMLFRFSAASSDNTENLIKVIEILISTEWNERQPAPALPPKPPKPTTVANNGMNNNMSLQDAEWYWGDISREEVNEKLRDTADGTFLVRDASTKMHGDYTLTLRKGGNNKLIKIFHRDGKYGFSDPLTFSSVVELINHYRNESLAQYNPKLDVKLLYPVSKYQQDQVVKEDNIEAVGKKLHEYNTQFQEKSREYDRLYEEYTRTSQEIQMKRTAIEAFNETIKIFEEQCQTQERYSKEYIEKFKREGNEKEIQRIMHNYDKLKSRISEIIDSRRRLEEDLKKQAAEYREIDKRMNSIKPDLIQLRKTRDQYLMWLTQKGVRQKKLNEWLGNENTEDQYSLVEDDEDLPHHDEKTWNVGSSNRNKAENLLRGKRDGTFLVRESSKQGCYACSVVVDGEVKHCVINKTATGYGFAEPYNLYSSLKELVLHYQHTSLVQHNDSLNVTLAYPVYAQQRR
In words: PI3-Kinase (human) HTRF Assay kit, PI3K alpha enzyme IC50 determination. In kind it is biochemical. As to conditions: ATP 10 μM, PIP2 10 μM, 1% DMSO, double holes for each concentration, read-out: the half inhibitory concentrations (IC50) of the tested compounds on PI3K-alpha. The protocol: Prepare fresh before each use. […] 1 μL of each was added to 24 μL 1× Reaction Buffer. 5 μL of each diluted solution was added into a 384-well plate and contained 1% DMSO. […] This working solution should be prepared with 0.1-0.2 ml more to meet the control usage and dead volume. […] In a 20 μL kinase reaction system, the concentration of ATP was 10 μM. For example, to prepare 2 ml ATP working solution, take 8 μL 10 mM ATP and add it to 1992 μL 1× reaction buffer.
On the technique in general: Time-resolved FRET reads energy transfer from a long-lived donor to a nearby acceptor.
For `O=C(Nc1ccc(-c2nc(N3CCOCC3)c3[nH]cnc3n2)cc1)Nc1ccc(CO)c(C(F)(F)F)c1` [RMP-D07, 1-(4-(hydroxymethyl)-3-(trifluoromethyl)phenyl)-3-(4-(6-morpholino-7H-purin-2-yl)phenyl)urea], the pIC50 was 6.67.

For the compound `O=C(Nc1ccc(COCCN2CCOCC2)cc1)Nc1ccc(-c2nc(N3CCOCC3)c3[nH]cnc3n2)cc1` [RMP-D08, 1-(4-(6-morpholino-7H-purin-2-yl)phenyl)-3-(4-((2-morpholinoethoxy)methyl)phenyl)urea], the pIC50 is 7.34.

For `O=C(Nc1ccc(CO)cc1)Nc1ccc(-c2nc(N3CCOCC3)c3[nH]cnc3n2)cc1` [RMP-D06, 1-(4-(hydroxymethyl)phenyl)-3-(4-(6-morpholino-7H-purin-2-yl)phenyl)urea], the pIC50 was 7.65.
